{"source": "patent US10533014B2", "about": "“Immunoregulatory agents” (Flexus Biosciences, Inc., priority 2014, dated 2020)", "data": [{"biological_target": "T1, human IDO1 (Homo sapiens, UniProt P14902)", "T1 construct": "expressed in transfected cells", "T1 sequence (P14902 whole entry)": "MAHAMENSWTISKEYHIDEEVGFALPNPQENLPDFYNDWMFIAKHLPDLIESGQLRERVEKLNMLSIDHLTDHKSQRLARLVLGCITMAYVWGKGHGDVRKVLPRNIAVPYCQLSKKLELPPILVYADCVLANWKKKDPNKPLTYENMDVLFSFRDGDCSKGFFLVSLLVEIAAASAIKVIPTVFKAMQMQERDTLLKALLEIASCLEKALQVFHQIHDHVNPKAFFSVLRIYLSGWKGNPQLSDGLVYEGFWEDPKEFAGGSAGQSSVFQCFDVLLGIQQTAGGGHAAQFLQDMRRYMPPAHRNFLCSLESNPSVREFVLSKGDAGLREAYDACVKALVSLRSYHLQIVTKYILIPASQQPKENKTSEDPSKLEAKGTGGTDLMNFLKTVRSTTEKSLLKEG", "test": "IDO inhibition assay in HEK293 cells stably expressing human IDO1 (Example 252)", "type": "cell-based", "details": "20 hours incubation, kynurenine by Ehrlich reagent, absorbance at 490 nm, read-out: HEK Human IDO-1 Potency", "protocol": "1HEK293 cells were transfected with a pCDNA-based mammalian expression vector harboring human IDO1 cDNA (NM 002164.2) by electroporation. They were cultured in medium (DMEM with 10% FBS) containing 1 mg/ml G418 for two weeks. Clones of HEK293 cells that stably expressed human IDO1 protein were selected and expanded for IDO inhibition assay.\nThe human IDO1/HEK293 cells were seeded at 10,000 cells per 50 μL per well with RPMI/phenol red free media contains 10% FBS in a 384-well black wall clear bottom tissue culture plate (Matrix Technologies LLC) 100 nL of certain concentration of compound was then added to each well using ECHO liquid handling systems. The cells were incubated for 20 hours in 37° C. incubator with 5% CO2.\nThe compound treatments were stopped by adding Trichloroacetic Acid (Sigma-Aldrich) to a final concentration at 0.2%. The cell plate was further incubated at 50° C. for 30 minute. The equal volume supernatant (20 μL) and 0.2% (w/v) Ehrlich reagent (4-dimethylaminobenzaldehyde, Sigma-Aldrich) in glacial acetic acid were mixed in a new clear bottom 384-well plate. This plate was then incubated at room temperature for 30 minute. The absorbance at 490 nm was measured on Envision plate reader.", "units": {"IC50": "nM"}, "values": [{"molecule": "CC(C(=O)Nc1ccc(Cl)cc1)C1CCC(c2ccnc3c2ncn3C)CC1", "note": "(mixture of isomers) [Example 250, (+/−)-Cis and trans-N-(4-chlorophenyl)-2-(4-(3-methyl-3H-imidazo[4,5-b]pyridin-7-yl)cyclohexyl)propanamide]", "IC50": "< 250"}, {"molecule": "C[C@@H](C(=O)Nc1cccc(C(F)F)c1)[C@H]1CC[C@@H](c2ccnc3ccc(F)cc32)CC1", "note": "(relative stereo) [Example 63, (R)-N-(3-(difluoromethyl)phenyl)-2-((cis)-4-(6-fluoroquinolin-4-yl)cyclohexyl)propanamide]", "IC50": "< 50"}, {"molecule": "C[C@@H](C(=O)NC1CCCCC1)[C@H]1CC[C@@H](c2ccnc3ccc(F)cc32)CC1", "note": "(relative stereo) [Example 141, (R)-N-cyclohexyl-2-((cis)-4-(6-fluoroquinolin-4-yl)cyclohexyl) propanamide]", "IC50": "< 50"}, {"molecule": "CC(C(=O)O)c1ccc(C[C@@H](C(=O)Nc2ccc(Cl)cc2)[C@H]2CC[C@@H](c3ccnc4ccccc43)CC2)cc1", "note": "(single isomer, unassigned) [Example 87b]", "IC50": "< 50"}, {"molecule": "COCC(C(=O)Nc1ccc(Cl)cc1)N1CCN(c2ccnc3ccc(F)cc23)CC1", "note": "(single isomer, unassigned) [Example 136, N-(4-chlorophenyl)-2-(4-(6-fluoroquinolin-4-yl)piperazin-1-yl)-3-methoxypropanamide]", "IC50": "> 250"}, {"molecule": "CC(C(=O)O)c1ccc(C[C@@H](C(=O)Nc2ccc(Cl)cc2)[C@H]2CC[C@@H](c3ccnc4ccc(F)cc43)CC2)cc1", "note": "(single isomer, unassigned) [Example 139]", "IC50": "< 50"}, {"molecule": "O=C(C[C@H]1CC[C@@H](c2ccnc3ccc(F)cc32)CC1)NC1CCCCC1", "note": "[Example 142, N-cyclohexyl-2-((cis)-4-(6-fluoroquinolin-4-yl)cyclohexyl) acetamide]", "IC50": "< 250"}, {"molecule": "N-(4-chlorophenyl)-2-(cis-4-(6-fluoroquinolin-4-yl)-1-hydroxycyclohexyl)propanamide [Example 231]", "IC50": "< 250"}, {"molecule": "N-(4-chlorophenyl)-2-(cis-4-(6-fluoroquinolin-4-yl)-1-hydroxycyclohexyl)propanamide [Example 232]", "IC50": "< 50"}, {"molecule": "N-(4-chlorophenyl)-2-(trans-4-(6-fluoroquinolin-4-yl)-1-hydroxycyclohexyl)propanamide [Example 229]", "IC50": "< 50"}, {"molecule": "N-(4-chlorophenyl)-2-(trans-4-(6-fluoroquinolin-4-yl)-1-hydroxycyclohexyl)propanamide [Example 230]", "IC50": "< 250"}]}]}
